≈ marks a conversion by molar mass, not a printed value. Calls of active or inactive are those of the source. The rule behind the calls is not given here.
Experiments:
Type in all cases: functional
[1] = tested on: Pseudomonas aeruginosa; experiment: Antibacterial activity against Pseudomonas aeruginosa MTCC 741 assessed as inhibition zones at 300 ug/disk at 37 degC for 24 hr; settings: MTCC 741, 24 h, read-out: IZ
[2] = tested on: Chromobacterium violaceum; experiment: Antibacterial activity against Chromobacterium violaceum MTCC 2656 assessed as growth arrest at 37 degC for 24 hr; settings: MTCC 2656, 24 h
[3] = tested on: Chromobacterium violaceum; experiment: Antibacterial activity against Chromobacterium violaceum MTCC 2656 assessed as inhibition zones at 300 ug/disk at 37 degC for 24 hr; settings: MTCC 2656, 24 h, read-out: IZ
[4] = tested on: Trichophyton mentagrophytes; experiment: Antifungal activity against Trichophyton mentagrophytes IFO 40996 assessed as growth inhibition at 300 ug/disc at 37 degC for 48 hr
[5] = tested on: Bacillus subtilis; experiment: Antibacterial activity against Bacillus subtilis MTCC 441 assessed as growth arrest at 37 degC for 24 hr; settings: MTCC 441, 24 h
[6] = tested on: Pseudomonas aeruginosa; experiment: Antibacterial activity against Pseudomonas aeruginosa MTCC 741 assessed as growth arrest at 37 degC for 24 hr; settings: MTCC 741, 24 h
[7] = tested on: Staphylococcus aureus; experiment: Antibacterial activity against Staphylococcus aureus MTCC 96 assessed as growth arrest at 37 degC for 24 hr; settings: MTCC 96, 24 h
[8] = tested on: Trichophyton rubrum; experiment: Antifungal activity against Trichophyton rubrum IFO 9185 assessed as growth inhibition at 37 degC for 48 hr; settings: IFO 9185, 48 h
[9] = tested on: Staphylococcus aureus; experiment: Antibacterial activity against Staphylococcus aureus MTCC 96 assessed as inhibition zones at 300 ug/disc at 37 degC for 24 hr; settings: MTCC 96, 24 h, read-out: IZ
[10] = tested on: Trichophyton rubrum; experiment: Antifungal activity against Trichophyton rubrum IFO 9185 assessed as growth inhibition at 300 ug/disk at 37 degC for 48 hr; settings: for zone of inhibition at 300 µg/disc: IFO 9185, 48 h, read-out: IZ
[11] = tested on: Aspergillus fumigatus; experiment: Antifungal activity against Aspergillus fumigatus HIC 6094 assessed as growth inhibition at 37 degC for 48 hr
[12] = tested on: Lysinibacillus sphaericus; experiment: Antibacterial activity against Lysinibacillus sphaericus MTCC 11 assessed as growth arrest at 37 degC for 24 hr; settings: MTCC 11, 24 h
[13] = tested on: Lysinibacillus sphaericus; experiment: Antibacterial activity against Lysinibacillus sphaericus MTCC 11 assessed as inhibition zones at 300 ug/disk at 37 degC for 24 hr; settings: MTCC 11, 24 h, read-out: IZ
[14] = tested on: Candida albicans; experiment: Antifungal activity against Candida albicans ATCC 10231 assessed as growth inhibition at 300 ug/disk at 37 degC for 48 hr; settings: for zone of inhibition at 300 µg/disc: ATCC 10231, 48 h, read-out: IZ
[15] = tested on: Caenorhabditis elegans; experiment: Nematicidal activity against Caenorhabditis elegans assessed as immobility; settings: read-out: LD50 (the source's name)
[16] = tested on: Trichophyton mentagrophytes; experiment: Antifungal activity against Trichophyton mentagrophytes IFO 40996 assessed as growth inhibition at 37 degC for 48 hr; settings: IFO 40996, 48 h
[17] = tested on: Klebsiella aerogenes; experiment: Antibacterial activity against Enterobacter aerogenes MTCC 39 assessed as growth arrest at 37 degC for 24 hr; settings: MTCC 39, 24 h
[18] = tested on: Klebsiella aerogenes; experiment: Antibacterial activity against Enterobacter aerogenes MTCC 39 assessed as inhibition zones at 300 ug/disk at 37 degC for 24 hr; settings: MTCC 39, 24 h, read-out: IZ
[19] = tested on: Bacillus subtilis; experiment: Antibacterial activity against Bacillus subtilis MTCC 441 assessed as inhibition zones at 300 ug/disk at 37 degC for 24 hr; settings: MTCC 441, 24 h, read-out: IZ
[20] = tested on: Candida albicans; experiment: Antifungal activity against Candida albicans ATCC 10231 assessed as growth inhibition at 37 degC for 48 hr; settings: ATCC 10231, 48 h
[21] = tested on: Aspergillus fumigatus; experiment: Antifungal activity against Aspergillus fumigatus HIC 6094 assessed as growth inhibition at 300 ug/disc at 37 degC for 48 hr
[22] = tested on: Ditylenchus myceliophagus; experiment: Nematicidal activity against Ditylenchus myceliophagus assessed as immobility; settings: read-out: LD50 (the source's name)

SMILES | zone of inhibition at 300 µg/disc [1] [mm] | MBC [2] [µg/mL] | MIC [2] [µg/mL] | zone of inhibition at 300 µg/disc [3] [mm] | MBC [5] [µg/mL] | MIC [5] [µg/mL] | MBC [6] [µg/mL] | MIC [6] [µg/mL] | MBC [7] [µg/mL] | MIC [7] [µg/mL] | MBC [8] [µg/mL] | MIC [8] [µg/mL] | zone of inhibition at 300 µg/disc [9] [mm] | MBC [12] [µg/mL] | MIC [12] [µg/mL] | zone of inhibition at 300 µg/disc [13] [mm] | LC50 [15] [µg/mL] | MBC [16] [µg/mL] | MIC [16] [µg/mL] | MBC [17] [µg/mL] | other results
COc1ccc(Cc2ccc(OC)c(C3SC4C(=NN(c5ccccc5)C4c4ccc(F)cc4)N3c3ccc(Cl)cc3)c2)cc1C1SC2C(=NN(c3ccccc3)C2c2ccc(F)cc2)N1c1ccc(Cl)cc1 (stereo unspecified) | 19 | 25 (≈ 23.9 µM) | 12.5 (≈ 12 µM) | 20 | 25 (≈ 23.9 µM) | 6.25 (≈ 5.99 µM) | 12.5 (≈ 12 µM) | 6.25 (≈ 5.99 µM) | 50 (≈ 47.9 µM) | 25 (≈ 23.9 µM) | 12.5 (≈ 12 µM) | 12.5 (≈ 12 µM) | 20 | 50 (≈ 47.9 µM) | 12.5 (≈ 12 µM) | 21 | 650 (≈ 623 µM) | 12.5 (≈ 12 µM) | 6.25 (≈ 5.99 µM) | 25 (≈ 23.9 µM) | inhibition zone (IZ) [4]: inactive; zone of inhibition at 300 µg/disc [10]: 17 mm; MBC ([11]; HIC 6094, 48 h): 25 µg/mL (≈ 23.9 µM); MIC ([11]; HIC 6094, 48 h): 12.5 µg/mL (≈ 12 µM); inhibition zone (IZ) [14]: inactive; MIC [17]: 12.5 µg/mL (≈ 12 µM); zone of inhibition at 300 µg/disc [18]: 22 mm; zone of inhibition at 300 µg/disc [19]: 18 mm; MBC [20]: 6.25 µg/mL (≈ 5.99 µM); MIC [20]: 6.25 µg/mL (≈ 5.99 µM); inhibition zone (IZ) [21]: inactive; LC50 [22]: 810 µg/mL (≈ 776 µM)
COc1ccc(N2N=C3C(SC(c4cc(Cc5ccc(OC)c(C6SC7C(=NN(c8ccc(OC)cc8)C7c7ccc(F)cc7)N6c6ccc(Cl)cc6)c5)ccc4OC)N3c3ccc(Cl)cc3)C2c2ccc(F)cc2)cc1 (stereo unspecified) | 20 | 50 (≈ 45.3 µM) | 6.25 (≈ 5.66 µM) | 23 | 12.5 (≈ 11.3 µM) | 12.5 (≈ 11.3 µM) | 50 (≈ 45.3 µM) | 12.5 (≈ 11.3 µM) | 25 (≈ 22.6 µM) | 12.5 (≈ 11.3 µM) | 50 (≈ 45.3 µM) | 25 (≈ 22.6 µM) | 28 | 50 (≈ 45.3 µM) | 12.5 (≈ 11.3 µM) | 16 | 820 (≈ 743 µM) | 50 (≈ 45.3 µM) | 25 (≈ 22.6 µM) | 25 (≈ 22.6 µM) | inhibition zone (IZ) [4]: inactive; inhibition zone (IZ) [10]: inactive; MBC [11]: inactive; MIC [11]: inactive; zone of inhibition at 300 µg/disc [14]: 14 mm; MIC [17]: 12.5 µg/mL (≈ 11.3 µM); zone of inhibition at 300 µg/disc [18]: 21 mm; zone of inhibition at 300 µg/disc [19]: 17 mm; MBC [20]: 50 µg/mL (≈ 45.3 µM); MIC [20]: 25 µg/mL (≈ 22.6 µM); inhibition zone (IZ) [21]: inactive; LC50 [22]: 900 µg/mL (≈ 815 µM)
COc1ccc(Cc2ccc(OC)c(C3SC4C(=NN(C)C4c4ccc(F)cc4)N3c3ccc([N+](=O)[O-])cc3)c2)cc1C1SC2C(=NN(C)C2c2ccc(F)cc2)N1c1ccc([N+](=O)[O-])cc1 (stereo unspecified) | 12 | 12.5 (≈ 13.3 µM) | 12.5 (≈ 13.3 µM) | 18 | 6.25 (≈ 6.64 µM) | 6.25 (≈ 6.64 µM) | 12.5 (≈ 13.3 µM) | 12.5 (≈ 13.3 µM) | 25 (≈ 26.6 µM) | 12.5 (≈ 13.3 µM) | 25 (≈ 26.6 µM) | 12.5 (≈ 13.3 µM) | 21 | 25 (≈ 26.6 µM) | 12.5 (≈ 13.3 µM) | 20 | 200 (≈ 213 µM) | 25 (≈ 26.6 µM) | 12.5 (≈ 13.3 µM) | 25 (≈ 26.6 µM) | zone of inhibition at 300 µg/disc ([4]; IFO 40996, 48 h, read-out: IZ): 14 mm; zone of inhibition at 300 µg/disc [10]: 15 mm; MBC ([11]; HIC 6094, 48 h): 25 µg/mL (≈ 26.6 µM); MIC ([11]; HIC 6094, 48 h): 12.5 µg/mL (≈ 13.3 µM); zone of inhibition at 300 µg/disc [14]: 21 mm; MIC [17]: 12.5 µg/mL (≈ 13.3 µM); zone of inhibition at 300 µg/disc [18]: 19 mm; zone of inhibition at 300 µg/disc [19]: 16 mm; MBC [20]: 25 µg/mL (≈ 26.6 µM); MIC [20]: 12.5 µg/mL (≈ 13.3 µM); zone of inhibition at 300 µg/disc ([21]; HIC 6094, 48 h, read-out: IZ): 14 mm; LC50 [22]: 180 µg/mL (≈ 191 µM)

Reference: ChEMBL document CHEMBL3045223, “Synthesis, nematicidal and antimicrobial properties of Bis-[4-methoxy-3-[3-(4-fluorophenyl)-6-(4-methylphenyl)-2(aryl)-tetrahydro-2H-pyrazolo[3,4-d]thiazol-5-yl]phenyl]methanes” (2009)
